Data reported in ChEMBL document CHEMBL5375989, “Pioneering 4,11-Dioxo-4,11-dihydro-1H-anthra[2,3-d]imidazol-3-ium Compounds as Promising Survivin Inhibitors by Targeting ILF3/NF110 for Cancer Therapy” (J Med Chem, 2023).
pIC50, pKd: −log10 of the molar value.

Experiments:
[1] = Toxicity in BALB/c nude mouse assessed as dermatitis at 2 mg/kg, sc administered every 2 days for 14 days; assay type: organism-based; conditions: in vivo, 336 h, time 14 day
A549 [2] = experiment: Induction of apoptosis in human A549 cells assessed as viable cells at 0.25 uM measured after 48 hrs by annexin V and PI staining based flow cytometry analysis (reference value: 93.3%); assay type: functional; conditions: Homo sapiens, A549, 48 h, read-out: Activity
HUVEC = experiment: Antiproliferative activity against human HUVEC cells assessed as inhibition of cell growth measured after 48 hrs by MTT assay; assay type: toxicity, cell-based; conditions: huvec
NIH3T3 = experiment: Antiproliferative activity against mouse NIH3T3 cells assessed as inhibition of cell growth measured after 48 hrs by MTT assay; assay type: toxicity, cell-based; conditions: nih3t3
A549 [3] = experiment: Induction of apoptosis in human A549 cells assessed as late apoptotic cells at 0.25 uM measured after 48 hrs by annexin V and PI staining based flow cytometry analysis (reference value: 4.70%); assay type: functional
NCI-H1299 = experiment: Antiproliferative activity against human NCI-H1299 cells assessed as inhibition of cell growth measured after 48 hrs by MTT assay; assay type: functional, cell-based; conditions: nci-h1299
[4] = Drug distribution in BALB/C nude mouse tumor xenografted with human A549 cells at 2 mg/kg measured after 2 to 6 hrs by UPLC-3Q analysis; assay type: ADME, organism-based, Neoplasm; conditions: in vivo, time 2-6 hrs
BXPC-3 = experiment: Antiproliferative activity against human BXPC-3 cells assessed as inhibition of cell growth measured after 48 hrs by MTT assay; assay type: functional, cell-based; conditions: bxpc-3
NCI-H460 = experiment: Antiproliferative activity against human NCI-H460 cells assessed as inhibition of cell growth measured after 48 hrs by MTT assay; assay type: functional, cell-based; conditions: nci-h460
[5] = Toxicity in BALB/c nude mouse assessed as death at 4 mg/kg, sc administered every 2 days for 14 days; assay type: organism-based; conditions: in vivo, 336 h, time 14 day
A549 [6] = experiment: Antiproliferative activity against human A549 cells assessed as inhibition of cell growth measured after 48 hrs in presence of scramble siRNA by MTT assay; assay type: functional, cell-based; conditions: A549, 48 h
A549 [7] = experiment: Induction of apoptosis in human A549 cells assessed as necrotic cells at 0.1 uM measured after 48 hrs by annexin V and PI staining based flow cytometry analysis (reference value: 1.47%); assay type: functional
A549 [8] = experiment: Induction of cell cycle arrest in human A549 cells assessed as accumulation of cells at G0/G1 phase at 0.1 uM incubated for 48 hrs by PI staining based flow cytometry analysis (reference value: 63.26%); assay type: functional
TE-1 = experiment: cells; conditions: Homo sapiens, TE-1, 48 h
Description: Antiproliferative activity against human TE-1 cells assessed as inhibition of cell growth measured after 48 hrs by MTT assay

[9] = Drug distribution in BALB/C nude mouse heart xenografted with human A549 cells at 2 mg/kg measured after 2 to 6 hrs by UPLC-3Q analysis; assay type: ADME, organism-based; conditions: in vivo, time 2-6 hrs
A549 [10] = experiment: Induction of apoptosis in human A549 cells assessed as necrotic cells at 0.04 uM measured after 48 hrs by annexin V and PI staining based flow cytometry analysis (reference value: 1.47%); assay type: functional
[11] = Toxicity in BALB/c mouse assessed as morphological changes in heart at 2 to 4 mg/kg by H and E staining based analysis; assay type: organism-based; conditions: in vivo, dose 2-4 mg/kg
[12] = Drug uptake in Sprague-Dawley rat blood at 2 mg/kg measured after 24 hrs by UPLC-3Q analysis; assay type: ADME, organism-based; conditions: in vivo
HeLa = experiment: Antiproliferative activity against human HeLa cells assessed as inhibition of cell growth measured after 48 hrs by MTT assay; assay type: functional, cell-based; conditions: hela
A549 [13] = experiment: Induction of apoptosis in human A549 cells assessed as early apoptotic cells at 0.1 uM measured after 48 hrs by annexin V and PI staining based flow cytometry analysis (reference value: 0.71%); assay type: functional
[14] = Toxicity in BALB/c nude mouse assessed as effect on body weight at 2 mg/kg, sc administered every 2 days for 14 days; assay type: organism-based; conditions: in vivo, 336 h, time 14 day
[15] = biological target: T1, Interleukin enhancer-binding factor 3 (Homo sapiens, UniProt Q12906); experiment: Binding affinity to ILF3 (unknown origin) assessed as dissociation constant at upto 1 uM by SPR method
T1 sequence (Q12906 whole entry): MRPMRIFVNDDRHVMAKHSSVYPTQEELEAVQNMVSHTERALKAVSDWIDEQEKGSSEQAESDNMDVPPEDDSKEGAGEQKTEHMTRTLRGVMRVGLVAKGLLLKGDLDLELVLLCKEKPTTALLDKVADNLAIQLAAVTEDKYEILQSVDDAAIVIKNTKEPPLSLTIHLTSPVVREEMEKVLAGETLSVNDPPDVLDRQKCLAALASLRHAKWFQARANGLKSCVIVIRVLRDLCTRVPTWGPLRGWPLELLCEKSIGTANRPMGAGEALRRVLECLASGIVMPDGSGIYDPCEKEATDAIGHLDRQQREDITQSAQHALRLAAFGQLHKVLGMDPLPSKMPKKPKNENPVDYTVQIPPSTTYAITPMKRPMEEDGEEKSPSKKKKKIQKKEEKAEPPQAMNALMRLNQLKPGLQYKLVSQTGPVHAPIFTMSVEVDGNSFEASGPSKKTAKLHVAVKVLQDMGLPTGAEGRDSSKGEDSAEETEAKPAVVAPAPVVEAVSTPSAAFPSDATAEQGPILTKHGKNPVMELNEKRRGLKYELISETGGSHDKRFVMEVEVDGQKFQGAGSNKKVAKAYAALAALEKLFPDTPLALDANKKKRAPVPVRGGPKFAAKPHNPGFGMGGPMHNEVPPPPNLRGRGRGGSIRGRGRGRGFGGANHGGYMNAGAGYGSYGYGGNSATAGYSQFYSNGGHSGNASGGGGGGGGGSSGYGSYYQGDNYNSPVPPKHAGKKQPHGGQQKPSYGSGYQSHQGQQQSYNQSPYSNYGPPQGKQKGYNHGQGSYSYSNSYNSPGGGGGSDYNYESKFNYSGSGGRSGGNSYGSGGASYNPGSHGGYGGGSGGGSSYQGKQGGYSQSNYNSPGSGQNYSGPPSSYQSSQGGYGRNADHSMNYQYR

[16] = Toxicity in BALB/c mouse assessed as morphological changes in spleen at 2 to 4 mg/kg by H and E staining based analysis; assay type: organism-based; conditions: in vivo, dose 2-4 mg/kg
5637 = experiment: cells; conditions: Homo sapiens, 5637, 48 h
Description: Antiproliferative activity against human 5637 cells assessed as inhibition of cell growth measured after 48 hrs by MTT assay

143B = experiment: Antiproliferative activity against human 143B cells assessed as inhibition of cell growth measured after 48 hrs by MTT assay; assay type: functional, cell-based; conditions: 143b
ASPC1 = experiment: Antiproliferative activity against human ASPC1 cells assessed as inhibition of cell growth measured after 48 hrs by MTT assay; assay type: functional, cell-based; conditions: aspc1
A549 [17] = experiment: Induction of apoptosis in human A549 cells assessed as early apoptotic cells at 0.25 uM measured after 48 hrs by annexin V and PI staining based flow cytometry analysis (reference value: 0.71%); assay type: functional
[18] = Toxicity in BALB/c mouse assessed as morphological changes in lung at 2 to 4 mg/kg by H and E staining based analysis; assay type: organism-based; conditions: in vivo, dose 2-4 mg/kg
A549 [19] = experiment: Inhibition of colony formation in human A549 cells assessed as suppression of colony formation at 5 nM replaced with fresh medium for every 72 hrs and measured for 15 days by crystal violet staining based assay relative to control; assay type: functional; conditions: A549, 360 h, time 15 day

Cn1c[n+](C)c2c1C(=O)c1cc3ccccc3cc1C2=O.[I-]
Activity [1]: Non-Toxic
viability at 0.25 µM (A549 [2]): 3.28%
pIC50 (HUVEC): 5.18
pIC50 (NIH3T3): 4.85
Activity (A549 [3]): 90%
pIC50 (NCI-H1299): 6.29
Drug uptake [4]: Active
pIC50 (BXPC-3): 7.15
pIC50 (NCI-H460): 6.85
Activity [5]: Non-Toxic
pIC50 (A549 [6]): 8.05
Activity (A549 [7]): 6.62%
Activity (A549 [8]): 85.37%
pIC50 (TE-1): 7.30
Drug uptake [9]: Not Active
Activity (A549 [10]): 4.74%
Activity [11]: Non-Toxic
Drug uptake [12]: Active
pIC50 (HeLa): 5.94
Activity (A549 [13]): 2.55%
Activity [14]: Non-Toxic
pKd [15]: 6.79
Activity [16]: Non-Toxic
pIC50 5637: 6.74
pIC50 (143B): 6.23
pIC50 (ASPC1): 6.60
Activity (A549 [17]): 2.37%
Activity [18]: Non-Toxic
inhibition at 0.005 µM (A549 [19]): 100%
